Test results as given in US6448027B1, “Method for specific measurement of acid phosphatase derived from osteoclasts” (FALCO biosystems Ltd., priority 1999, dated 2002).

Key:
[1] = test system: Band 5b tartrate-resistant acid phosphatase; assay: Effects of other materials on Band 5b TrACP activity in serum of healthy subjects; type: biochemical, human; details: for Band 5b TrACP activity (%): control activity taken as 100%, serum of healthy subjects; for Effect of addition on Band 5b tartrate-resistant acid phosphatase activity: summary in words of Table 1, 1-10 mmol/L
Experimental: (1) Formulation of Compositions
(a) A Composition Comprising Tartaric Acid and Heparin (Reaction Buffer Solution 1)
(b) A composition comprising tartaric acid, heparin and fluoride (reaction buffer solution 2)
(2) Measurement (an Example Using Conventional Automatic Analyzer, Cobas® Fara, Baxter Ltd.)
(§1) To a cuvette is added 150 µl of reaction buffer solution 1 or reaction buffer solution 2 and, after 20 seconds, 15 µl of sample (serum) is added. The mixture is incubated at 37° C. for 5 minutes and then 60 µl of the substrate solution is added to start the enzyme reaction (the reaction mixture is 15 times as much as the amount of the sample (=(150 μ1+15 μ1+60 μ1)/15 μ1). The change in absorbance at 340 nm is monitored at 20 seconds intervals for 5 minutes. The amount of change in absorbance per one minute (the amount of change in absorbance in the enzyme reaction per unit time) is obtained from a linear part of the change in absorbance. The amount of change in absorbance per one minute in blank is obtained by the same procedure as the above except for adding physical saline or purified water instead of the sample.
The activity of osteoclast-derived acid phosphatase located at Band 5b is obtained by subtracting the activity value obtained by using the composition comprising tartaric acid, heparin and fluoride of the reaction buffer solution 2 from the activity value obtained by using the composition comprising tartaric acid and the inhibitor to acid phosphatases located at Band 5 other than Band 5b (in Examples, heparin is used) of the reaction buffer solution 1. […] The concentration, formulation, amount and the like of the above composition are adjusted according to a particular kind of automatic analyzer and measurement (kind and concentration of the substrate and the like) used.
(§2) Activity (U/L)=[(amount of change in absorbance per unit time in enzyme reaction−amount of change in absorbance in blank)×liquid amount on enzyme reaction×10^6]÷[sample amount×molar absorbance coefficient×cell optical path length]

[2] = test system: Band 5b tartrate-resistant acid phosphatase; details: read-out: Km value for DCAPP of Band 5b tartrate-resistant acid phosphatase activity; substrate DCAPP
Experimental: as §1, with “sample. […]” for “sample.”
as §2

[3] = test system: tartrate-resistant fluoride-sensitive acid phosphatases other than Band 5b; assay: TrFsACP activity of CM-Sepharose fractions of serum with heparin or polybrene in the reaction buffer; type: biochemical, human; details: CM-Sepharose fractions of children's serum; FIG. 1
Experimental: Using CM-Sepharose, Band 5a and Band 5b tartrate-resistant acid phosphatase were separated and collected.
(§3) The CM-Sepharose was packed into glass tubing (0.9 cm i.d.; length, 60 cm) and washed with acetate buffer (10 mmol/L, pH 5.0). The serum sample (children's serum, 5 ml) was adjusted to pH 5.0 by adding acetic acid and the coagulated proteins were removed by centrifugation at 20,000×g for 15 minutes. The supernatant fraction was passed through the column at 0.5 ml/minute. The enzyme, which was retained on the column, was then eluted with a liner gradient of sodium chloride: 0 to 1 mol/L in elution buffer (299 ml, acetate buffer, 10 mmol/L, pH 5.0). The fractionated serum was subjected to the method described in the above general method to measure tartrate-resistant fluoride-sensitive acid phosphatase activity (the value obtained by subtracting the value obtained with measurement solution 2 from the value obtained with measurement solution 1). Acid phosphatase activity was measured similarly by using measurement solution added polybrene which was antagonist of heparin instead of heparin.
When polybrene was added to the reaction buffer, at least four peaks of tartrate-resistant fluoride-sensitive acid phosphatase activity were observed (FIG. 1, I, II, III and IV). But only one peak (IV) was observed when heparin was added to the reaction buffer. […]

serum = assay: Effect of heparin on serum acid phosphatase activity; type: biochemical, human; details: FIG. 3
Experimental: Blood samples collected from 516 healthy subjects aged 5 to 79 years (210 males and 306 females) were coagulated at room temperature for 2 to 4 hours and centrifuged at 1,000×g at room temperature for 10 minutes. Serum thus separated was transferred into 1.5 ml tubes and stored at −80° C. until use.

bone extract = assay: Effect of heparin on bone extract acid phosphatase activity; type: biochemical; details: FIG. 3; bovine tibia extract
Experimental: Bone extract was prepared according to the method described in Nakanishi, M., Yoh, K., Uchida, K., Maruo, S., Matuoka, A., Clin. Chem., 1998, 44, 221-225. Bovine tibia after removal of soft tissue was cut into small cubes. The marrow and blood were removed, pulverized and homogenized in a solution containing Triton x-100, potassium chloride, phenylmethylsulfonyl fluoride, benzamidine and aminocaproic acid. The extract was collected by centrifugation at 10,000×g for 20 minutes at 4° C. and stored at −80° C. until use.

[4] = molecular target: T1, Band 5a tartrate-resistant acid phosphatase (Homo sapiens, UniProt P13686); assay: Effect of heparin on Band 5a tartrate-resistant acid phosphatase (CM-Sepharose peak III); type: biochemical
T1 construct: These fractions containing peak III and IV were used as Band 5a and Band 5b tartrate-resistant acid phosphatase, respectively; from tissue; host or cells: children's serum, CM-Sepharose cation-exchange fraction (peak III)
T1 sequence (P13686 22-325): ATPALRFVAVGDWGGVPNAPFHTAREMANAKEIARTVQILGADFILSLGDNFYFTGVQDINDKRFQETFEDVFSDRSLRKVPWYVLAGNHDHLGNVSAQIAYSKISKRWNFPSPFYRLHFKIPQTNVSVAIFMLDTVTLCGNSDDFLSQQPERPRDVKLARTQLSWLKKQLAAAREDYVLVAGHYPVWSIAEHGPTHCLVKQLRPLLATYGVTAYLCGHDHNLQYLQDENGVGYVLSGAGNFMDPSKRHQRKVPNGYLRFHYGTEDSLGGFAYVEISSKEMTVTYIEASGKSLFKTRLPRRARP
Experimental: as §3
These fractions containing peak III and IV were used as Band 5a and Band 5b tartrate-resistant acid phosphatase, respectively, in the following Examples. […]
Tartrate-resistant fluoride-sensitive acid phosphatase activity was measured using Band 5a and 5b tartrate-resistant acid phosphatases separated by CM-Sepharose to determine the effect of pH on activity. […]

[5] = compound 1 mmol/L in reaction buffer solution
[6] = compound 5 mmol/L in reaction buffer solution
[7] = compound 10 mmol/L in reaction buffer solution

Molecule | Band 5b TrACP activity (%) [1, 5] [%] | Band 5b TrACP activity (%) [1, 6] [%] | Band 5b TrACP activity (%) [1, 7] [%] | Effect of addition on Band 5b tartrate-resistant acid phosphatase activity [1] | Km [2] [mM] | Effect of heparin on tartrate-resistant fluoride-sensitive acid phosphatases other than Band 5b [3] | Effect of heparin on serum (serum) | Effect of heparin on bone extract (bone extract) | Effect of heparin on Band 5a tartrate-resistant acid phosphatase ([4]; FIG. 3) | Band 5a tartrate-resistant acid phosphatase activity after addition of heparin ([4]; pH 6.6, 0.05% heparin in reaction mixture, FIG. 4)
O=C1O[C@H]([C@@H](O)CO)C(O)=C1O [Ascorbic acid] | 97 | 103 | 103 | no effect |  |  |  |  |  | 
CC(=O)c1cc(Cl)c(OP(=O)(O)O)c(Cl)c1 [DCAPP, 2,6-dichloro-4-acetylphenyl phosphate] |  |  |  |  | 4.7 |  |  |  |  | 
O[C@H](CS)[C@H](O)CS (racemic) [Dithiothreitol] | 93 | 69 | 57 | inhibited enzyme activity |  |  |  |  |  | 
heparin |  |  |  |  |  | inhibits | slightly inhibited | slightly inhibited | significantly inhibited | zero level
O=C(O)CN(CCN(CC(=O)O)CC(=O)O)CC(=O)O [EDTA] | 95 | 96 | 93 | no effect |  |  |  |  |  | 
